Assay results published in patent EP3351262A1, “CURAGLUTIDE FOR IN TREATMENT OF PREDIABETES, DIABETES, OBESITY AND METABOLIC DISEASES ASSOCIATED THERETO” (Istanbul Universitesi Rektorlugu, priority 2016, dated 2018).

Test system: INS-1 beta cells
Assay: ROS measurement with H2DCFDA
Assay type: cell-based, rat
Details: INS-1 cells, 3rd hour, control 100%
Method: When this compound oxidizes by oxidants or free radicals, fluorescent dichlorofluorescein (DCF) will occur.
INS-beta cells were cultured into the plates covered with black with 96 wells in a way such that there would be 50 000 cells in 100 µl. After the growth of the cells, the experiment group (only palmitic acid given) and the groups wherein curaglutide as both protective and therapeutical against palmitic acid was given were removed at the end of the experiment, and each of the wells were washed with PBS. Then 100 µl PBS was added to every well. Then, start of experiment was accepted as 0th hour by adding 10 mM DCFA and the measurements were taken for 3 hours in every 30 minutes, including 0th hour. The absorbance values of each group and the absorbance values in 3rd hour was calculated by assuming the value of the control group as 100%.
ROS measurement was performed by applying H 2 DCFDA occurred as a result of chemical […] of fluorescein which is used as a marker for reactive oxygen derivatives (ROS) to INS-1 beta cells wherein palmitic acid was applied in different doses, and the results are shown in Figure 5.
ROS measurement was performed by applying 10 nM curaglutide as protector and therapeutical to INS-1 beta cells wherein palmitic acid was applied in different doses, and the results are shown in Figure 11.

Compound CCCCCCCCCCCCCCCC(=O)O [palmitic acid] has an ROS measurement percentages (0.5 mM palmitic acid) of 116±6.01%, an ROS measurement percentages (1 mM palmitic acid) of 117±2.5% and an ROS measurement percentages (1.5 mM palmitic acid) of 119.7±7.0%. For the same compound, the ROS measurement percentages (1.75 mM palmitic acid) was 136.5±5.6%, the ROS measurement percentages (2 mM palmitic acid) was 145.8±3.8% and the ROS measurement percentages (2.5 mM palmitic acid) was 172.1±6.1%. The ROS measurement percentages (3 mM palmitic acid) was 174.8±9.9%, the ROS measurement percentages (3.5 mM palmitic acid) was 241.6±5.5% and the ROS measurement percentages (4 mM palmitic acid) was 262.2±9.9%.
